For assay [1], the system named is human hair follicles in growth phase (anagen). The experiment in a line: Human hair follicle growth assay (hair follicle culture model). As to conditions: follicle length day 6 minus day 0, statistically significant, read-out: hair growth inhibition compared to the control. In kind it is cell-based. The procedure: Human hair follicles in growth phase (anagen) were isolated from face-lift tissue (obtained from plastic surgeons). The skin was sliced into thin strips exposing 2-3 rows of follicles that could readily be dissected. Follicles were placed into William's E medium (Life Technologies, Gaithersburg, Md.) supplemented with 2 mM L-glutamine, 10 µg/ml insulin, 10 ng/ml hydrocortisone, and an antibiotic/antimicotic mixture as described in Philpott et al. (1990) J. Cell Sci. 97 (Pt3):463-71. The follicles were incubated in 24-well plates (1 follicle/well) at 37° C. in an atmosphere of 5% CO2 and 100% humidity for different periods of time (Philpott et al. (1990) supra). The length of hair follicle was assessed using an image analysis software system. To determine the effect of molecules modulating TRPM8/TRPA1 activity on hair growth, hair follicles were incubated with icilin (Tocris Bioscience) and L-Menthol, L-menthyl lactate (Sigma). Hair follicle images were taken in the 24-well plates under the dissecting scope under a power of 20×. Hair follicle length was measured on day 0 (day follicles were placed in culture) and again on day 6. The growth of hair fiber was calculated by the subtracting the follicle length on day 0 from that determined on day 6. To identify whether modulation of TRPM8 and TRPA1 activity could affect hair growth, their agonists were tested in the hair follicle culture model. Hair follicle treatment with 10 uM of menthol, icilin, and menthyl lactate, caused statistically significant hair growth inhibition by 40%, 45% and 60% respectively, compared to the control. […] Thus, activation of either TRPM8 or TRPA1 by a cooling agent leads to a significant reduction of hair growth rate in vitro.

Assay [2] has as its system Ki-67 immunoreactivity in the hair matrix and outer root sheath. The assay is described as follows: Ki-67 immunofluorescence for proliferating cells in cultured hair follicles. In kind it is cell-based, human. Conditions: hair follicle treatment, concentration-dependent. The procedure: For detection of proliferating cells the indirect immunofluorescence protocol using rabbit monoclonal antibody against Ki-67. Eight […]m hair follicle sections were fixed in formalin and postfixed in ethanol/acetic acid. […] Counterstaining was performed using HOECHST 33342 dye ([…] in PBS; 10 minutes). Each phase was interspersed by a washing step (three times) in PBS. Finally, sections were mounted using VectaShield Vector Laboratories). All sections were examined under a Olympus BX 60 fluorescent microscope and photodocumented with the help of a digital image analysis system (CoolSnap™ cooled CCD camera, Alpha Innotech) To identify whether modulation of TRPM8 and TRPA1 activity could affect hair growth, their agonists were tested in the hair follicle culture model. Hair follicle treatment with 10 uM of menthol, icilin, and menthyl lactate, caused statistically significant hair growth inhibition by 40%, 45% and 60% respectively, compared to the control. […] Thus, activation of either TRPM8 or TRPA1 by a cooling agent leads to a significant reduction of hair growth rate in vitro.

Assay [3] concerns tyrosinase expression in hair follicles. The experiment in a line: Tyrosinase immunohistochemistry in treated hair follicles. Conditions: 10 uM. In kind it is cell-based, human. The procedure: For the immunodetection of melanogenic proteins, sections were incubated with either mouse monoclonal antibody against human tyrosinase or chicken monoclonal antibody against human p-mel 17 (Neomarker and Zymed, respectively; 1:100, overnight), followed by incubation with TRITC-labeled […] (Jackson ImmunoResearch; 45 min, 37° C.) and FITC-labeled goat anti-chicken IgG, respectively. Next, sections were counterstained with Hoechst 33342 (1:300, 15 min) for identification of cell nuclei, and mounted using VectaShield (Vector Laboratories). All sections were examined under a Olympus BX 60 fluorescent microscope and photodocumented with the help of a digital image analysis system (CoolSnap™ cooled CCD camera, Alpha Innotech) To determine whether a TRPM8 and TRPA1 agonist can affect pigment producing activity of the melanocytes, expression of tyrosinase was analyzed in the hair follicles treated with 10 uM icilin by immunohistochemistry. Tyrosinase expression was decreased in treated hair follicles, compared to the control. In addition, the effects of icilin on melanogenic protein expression were tested in human epidermal melanocytes culture. A decrease in tyrosinase and tyrosinase-related protein (TRP)-1 expression levels were observed 48 hours after 10 uM icilin treatment, compared to the control, as determined by Western blot analysis. […]

In assay [4] the test system is human epidermal melanocytes. The experiment in a line: Western blot of melanogenic proteins in human epidermal melanocytes culture. The assay is classed as cell-based. As to conditions: 10 uM, 48 hours. The protocol: Total cellular proteins of human melanocytes were harvested in a lysis buffer (Total protein extraction kit; CHEMICON International, Inc). Twenty […]g protein were loaded per lane, separated by 10% sodium dodecyl sulfate polyacrylamide gel electrophoresis, and transferred to nitrocellulose membrane at 100 V for 1 h. Following overnight blocking with 5% nonfat dry milk/bovine serum albumin (BSA) in Tris-phosphate-buffered saline (PBS) (0.5% Tween-20 in PBS) at 4° C., the membrane was incubated overnight with a monoclonal antibody against either tyrosinase or tyrosinase-related protein-1 or actin at a dilution of 1:1000. […] After extensive washing the membrane was incubated for 1 min with the enzyme-linked chemiluminescence Western Blotting Detection Reagent (Amersham, Buckinghamshire, U.K.), and bands were detected on preflashed Kodak X-Omat film and developed after several seconds of exposure.
To determine whether a TRPM8 and TRPA1 agonist can affect pigment producing activity of the melanocytes, expression of tyrosinase was analyzed in the hair follicles treated with 10 uM icilin by immunohistochemistry. […] A decrease in tyrosinase and tyrosinase-related protein (TRP)-1 expression levels were observed 48 hours after 10 uM icilin treatment, compared to the control, as determined by Western blot analysis. […]

SMILES strings stand for the structures.

As to `O=C1NC(c2cccc([N+](=O)[O-])c2)=CCN1c1ccccc1O` [icilin, 1-(2-Hydroxyphenyl)-4-(3-nitrophenyl)-1,2,3,6-tetrahydropyrimidin-2-one], the inhibition at 10 µM in assay [1] came out at 45%. The “cell proliferation (Ki-67 immunoreactivity in hair matrix and outer root sheath)” value in assay [2] is on record as “inhibition of cell proliferation in a concentration-dependent manner”. Further, the “tyrosinase expression in treated hair follicles compared to the control” value in assay [3] is listed as “decreased”. Further, in assay [4], the “tyrosinase expression level compared to the control” value was “decrease” and the “tyrosinase-related protein (TRP)-1 expression level compared to the control” value is reported as “decrease”.

Take `CC1CCC(C(C)C)C(O)C1` (stereo not shown) [menthol]: the inhibition at 10 µM in assay [1] was found to be 40%.

In the case of `CC1CCC(C(C)C)C(OC(=O)C(C)O)C1` (stereo not shown) [menthyl lactate], in assay [1], the inhibition at 10 µM worked out at 60%.
